Experimental findings from patent US20220227735A1, “THERAPEUTIC METHODS AND COMPOUNDS” (RUTGERS, THE STATE UNIVERSITY OF NEW JERSEY, priority 2019, published 2022) are described below.

Where two headings read alike, the source gives them in different places.

Assay [1] concerns the target T1, Plasmodium falciparum PKG (PfPKG) (Plasmodium falciparum, UniProt Q8I719).
T1 construct: Full length PfPKG was cloned into the pTrcHisC vector for expression in BL21 (DE3) Star cells; His tag (pTrcHisC vector) (N); made in house; host or cells: E. coli BL21 (DE3) Star
The assay can be described thus: PfPKG IMAP fluorescence polarization kinase assay. In kind it is biochemical. The procedure:
Full length PfPKG was cloned into the pTrcHisC vector for expression in BL21 (DE3) Star cells. An LB culture containing 50 ug/ml carbenicillin (250 mL) was grown overnight at 37° C. The following day the culture was cooled on ice for about 10-15 minutes and divided equally into two new 125 mL cultures. 125 ml of fresh LB broth containing carbenicillin was added to each flask bringing the volume of each flask to 250 ml. Cultures were shaken at 18° C. before induction with IPTG (1.0 mM) for 18-24 h. The bacterial pellet was frozen at −80° C. until protein purification. Cells were lysed with Bacterial Protein Extraction Reagent (Thermo Scientific) on ice for 10-15 min. Supernatant was obtained after centrifugation of lysate at 21,000×g for 15 min at 4° C. Supernatant was incubated for 30 minutes at 4° C. with rotation with HisPur Cobalt Resin (Thermo Scientific), pre-washed with Wash Buffer (50 mM Hepes pH 7.8, 120 mM KCl, 20 mM NaCl, 10 mM Imidazole). Resin was added to a gravity column that was allowed to empty through gravity flow. The resin was washed with Wash buffer until no more protein is eluted off the column as determined by Bradford assay. A second wash was performed with Wash buffer containing 300 mM NaCl as in the previous wash step. Bound protein was eluted in 50 mM Hepes pH 7.8, 120 mM KCl, 20 mM NaCl, 250 mM Imidazole. Protein was dialyzed overnight in 50 mM Hepes pH 7.8, 120 mM KCl, 20 mM NaCl and 10% glycerol, with two buffer exchanges. Dialyzed protein was concentrated in a Corning Spin-X concentrator and assayed for activity using the IMAP FP Progressive Screening Expression kit (Molecular Devices, catalog #R8127) following the manufacturer's protocol.
(§1) Plasmodium falciparum PKG (PfPKG) and human PKG (hPKG) kinase activity was assayed using a commercial immobilized metal ion affinity-based fluorescence polarization (IMAP) assay according to the manufactures protocol (Molecular Devices). Briefly, kinase assays (20 μl in black half volume 96 well microtiter plates) contained; 10 mM Tris-HCl, pH 7.2, 10 mM MgCl2, 0.05% NaN3, 0.01% Tween® 20, 10 uM ATP, 1 uM cGMP and 21 ng of recombinant enzyme per well. Compounds were preincubated with enzyme at 25° C. for 15 minutes and reactions were initiated with addition of 120 nM fluorescent peptide substrates, FAM-PKAtide for PfPKG and FAM-IP3R for hPKG (Molecular Devices). Fluorescent polarization was measured using a Synergy 2 Microplate reader (BioTek, Winooski, Vt.). Fluorescent polarization was read in parallel and perpendicular with an excitation wavelength of 485 nm and an emission wavelength of 528 nm. IC50 data were analyzed using a four parameter logistic curve fit using Microsoft Excel Solver.

The test system of the next assay is human PKG (hPKG). The assay can be described thus: Human PKG IMAP fluorescence polarization kinase assay. In kind it is biochemical. Particulars: compound at 10 μm; recombinant hPKG, 10 uM ATP, 1 uM cGMP, FAM-IP3R substrate.
Description: Human PKG, cloned into a pENTR221 vector, was obtained from DNASU.org. (HsCD00351766). It was cloned into a mammalian expression plasmid, Gateway pDEST27 (Invitrogen) for expression as a GST fusion protein, using LR Clonase II Plus enzyme (Invitrogen). The hPKG-pDEST27 plasmid was amplified in DH5a Max Efficiency Competent Cells and purified with a PureYield Plasmid Midiprep System (Promega) following the manufactures protocol. Expi293 cells were transfected with hPKG-pDEST27 using the Expifectamine 293 Transfection Kit (Gibco). After 18 hours, enhancing reagent (Gibco) was added. Cells were then collected 48 hours post-enhancing, centrifuged at 2000×g for 10 min, washed in ice cold PBS and frozen as a pellet at −80° C. until protein purification. The cell pellet was lysed with Mammalian Protein Extraction Reagent (Thermo Fisher) for 10-15 minutes. The lysate was centrifuged at 21,000×g for 15 minutes at 4° C. The supernatant was incubated for 1 h at 4° C. with glutathione resin that was pre-washed 10 times with ice cold Wash Buffer (50 mM Hepes pH 7.8, 120 mM KCl, 20 mM NaCl, 10% glycerol). The resin was loaded onto a column and washed with resin wash buffer by gravity flow until no more protein was detectable in the washes by Bradford assay. Protein was eluted with 10 mg/ml glutathione in Wash buffer. The protein was concentrated using a 30K MWCO Corning Spin X concentrator and assayed for activity as described above.
as §1

Where [2] appears, read: recombinant PfPKG, 10 uM ATP, 1 uM cGMP, FAM-PKAtide substrate, read-out: PfPKG (μm).

T1 sequence (Q8I719 whole entry): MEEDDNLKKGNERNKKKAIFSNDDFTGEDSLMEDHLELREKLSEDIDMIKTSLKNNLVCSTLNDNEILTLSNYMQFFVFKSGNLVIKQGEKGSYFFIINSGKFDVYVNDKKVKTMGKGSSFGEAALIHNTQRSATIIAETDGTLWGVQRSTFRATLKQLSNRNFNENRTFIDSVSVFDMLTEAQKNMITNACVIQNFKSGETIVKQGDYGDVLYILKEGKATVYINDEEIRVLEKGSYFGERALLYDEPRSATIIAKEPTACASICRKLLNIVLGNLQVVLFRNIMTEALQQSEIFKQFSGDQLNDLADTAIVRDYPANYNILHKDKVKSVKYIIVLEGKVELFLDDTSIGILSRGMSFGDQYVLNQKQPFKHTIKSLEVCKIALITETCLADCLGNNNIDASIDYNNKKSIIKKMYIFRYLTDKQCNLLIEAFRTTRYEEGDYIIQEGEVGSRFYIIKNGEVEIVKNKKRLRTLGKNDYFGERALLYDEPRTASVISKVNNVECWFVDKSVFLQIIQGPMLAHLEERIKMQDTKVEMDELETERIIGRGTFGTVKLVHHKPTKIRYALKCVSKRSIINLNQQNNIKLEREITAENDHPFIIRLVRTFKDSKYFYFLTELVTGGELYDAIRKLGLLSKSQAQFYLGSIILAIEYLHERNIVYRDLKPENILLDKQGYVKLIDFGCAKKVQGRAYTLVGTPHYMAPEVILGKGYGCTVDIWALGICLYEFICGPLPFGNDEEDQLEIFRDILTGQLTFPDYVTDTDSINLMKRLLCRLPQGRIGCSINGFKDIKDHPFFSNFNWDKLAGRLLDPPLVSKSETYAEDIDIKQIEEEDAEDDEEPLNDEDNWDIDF

Take `CN1CCC(c2[nH]c(-c3ccc(F)cc3)c(-c3ccncc3)c2C(N)=O)CC1` [Example 19, 5-(4-fluorophenyl)-2-(1-methylpiperidin-4-yl)-4-(pyridin-4-yl)-1H-pyrrole-3-carboxamide]: the IC50 in assay [1] (setting [2]) is < 1 µM. In the assay on human PKG (hPKG), the “Human PKG (10 μm)” value was −8.
Take `CN1CCc2c(ccc3c(-c4ccncc4)c(-c4ccc(F)cc4)[nH]c23)C1` [Example 11, 2-(4-fluorophenyl)-7-methyl-3-(pyridin-4-yl)-6,7,8,9-tetrahydro-1H-pyrrolo[2,3-f]isoquinoline]: the IC50 in assay [1] (setting [2]) is < 1 µM. In addition, the “Human PKG (10 μm)” value with human PKG (hPKG) worked out at 35.
Regarding `CC(O)c1c(C2CCN(C)CC2)[nH]c(-c2ccc(F)cc2)c1-c1ccncc1` (stereo not shown) [Example 20, 1-(5-(4-fluorophenyl)-2-(1-methylpiperidin-4-yl)-4-(pyridin-4-yl)-1H-pyrrol-3-yl)ethan-1-ol], the IC50 in assay [1] (setting [2]) is < 1 µM. The “Human PKG (10 μm)” value in the assay on human PKG (hPKG) came to 3.
The like results for `Cc1cnccc1-c1cc(C2CCN(C)CC2)[nH]c1-c1ccc(F)cc1` [Example 3, 4-(2-(4-fluorophenyl)-5-(1-methylpiperidin-4-yl)-1H-pyrrol-3-yl)-3-methylpyridine] were, in that order, < 1 µM and 45.
In the case of `C[C@@H]1CN(C)CC[C@H]1c1cc(-c2ccncc2)c(-c2ccc(F)cc2)[nH]1` (single isomer, unassigned) [Example 32, 4-(5-(trans-1,3-dimethylpiperidin-4-yl)-2-(4-fluorophenyl)-1H-pyrrol-3-yl)pyridine], the IC50 in assay [1] (read-out: PfPKG (μm), recombinant PfPKG, 10 uM ATP, 1 uM cGMP, FAM-PKAtide substrate) was < 1 µM. Further, the “Human PKG (10 μm)” value with human PKG (hPKG) is given as 66.
For the compound `CN1CCC(c2[nH]c(-c3ccc(F)cc3)c(-c3ccncc3)c2CS(C)(=O)=O)CC1` [Example 25, 4-(2-(4-fluorophenyl)-5-(1-methylpiperidin-4-yl)-4-((methylsulfonyl)methyl)-1H-pyrrol-3-yl)pyridine], the IC50 in assay [1] (setting [2]) is < 1 µM. The “Human PKG (10 μm)” value with human PKG (hPKG) came to 17.
The like results for `CN1CCC(c2[nH]c(-c3ccc(F)cc3)c(-c3ccncc3)c2Br)CC1` [Example 15, 4-(4-bromo-2-(4-fluorophenyl)-5-(1-methylpiperidin-4-yl)-1H-pyrrol-3-yl)pyridine] were, in that order, < 1 µM and 52.
Regarding `CN1CCC(c2cc(-c3ccncc3CO)c(-c3ccc(F)cc3)[nH]2)CC1` [Example 6, (4-(2-(4-fluorophenyl)-5-(1-methylpiperidin-4-yl)-1H-pyrrol-3-yl)pyridin-3-yl)methanol], in assay [1] (setting [2]), the IC50 is < 1 µM. Also, in the assay with human PKG (hPKG), the “Human PKG (10 μm)” value is −1.
As for `CN1CCC(c2cc(-c3ccnc(Br)c3)c(-c3ccc(F)cc3)[nH]2)CC1` [Example 2, 2-bromo-4-(2-(4-fluorophenyl)-5-(1-methylpiperidin-4-yl)-1H-pyrrol-3-yl)pyridine], the IC50 in assay [1] (setting [2]) is < 1 µM. Further, the “Human PKG (10 μm)” value with human PKG (hPKG) is 60.
For `CN1C[C@@H]2C(c3cc(-c4ccncc4)c(-c4ccc(F)cc4)[nH]3)[C@@H]2C1` (stereo partly drawn) [Example 26, (1R,5S)-6-(5-(4-fluorophenyl)-4-(pyridin-4-yl)-1H-pyrrol-2-yl)-3-methyl-3-azabicyclo[3.1.0]hexane], the IC50 in assay [1] (setting [2]) was < 1 µM. Also, the “Human PKG (10 μm)” value in the assay on human PKG (hPKG) came to 7.
`C=Cc1c(C2CCN(C)CC2)[nH]c(-c2ccc(F)cc2)c1-c1ccncc1` [Example 17, 4-(2-(4-fluorophenyl)-5-(1-methylpiperidin-4-yl)-4-vinyl-1H-pyrrol-3-yl)pyridine]: the IC50 in assay [1] (setting [2]) is < 1 µM. Also, in the assay on human PKG (hPKG), the “Human PKG (10 μm)” value came out at 34.
As to `CN1CCC(C)(c2cc(-c3ccncc3)c(-c3ccc(F)cc3)[nH]2)CC1` [Example 28, 4-(5-(1,4-dimethylpiperidin-4-yl)-2-(4-fluorophenyl)-1H-pyrrol-3-yl)pyridine], the IC50 in assay [1] was < 1 µM. Moreover, the “Human PKG (10 μm)” value in the assay on human PKG (hPKG) was 29.
With `COc1ccc(-c2[nH]c(C3CCN(C)CC3)cc2-c2ccncc2)cc1` [Example 34, 4-(2-(4-methoxyphenyl)-5-(1-methylpiperidin-4-yl)-1H-pyrrol-3-yl)pyridine], the IC50 in assay [1] (setting [2]) was < 1 µM. In addition, the “Human PKG (10 μm)” value in the assay with human PKG (hPKG) is 38.
Turning to `C[C@H]1C[C@@H](c2cc(-c3ccncc3)c(-c3ccc(F)cc3)[nH]2)CCN1C` (single isomer, unassigned) [Example 29, 4-(5-(cis-1,2-dimethylpiperidin-4-yl)-2-(4-fluorophenyl)-1H-pyrrol-3-yl)pyridine], in assay [1] (setting [2]), the IC50 was < 1 µM. In addition, in the assay on human PKG (hPKG), the “Human PKG (10 μm)” value is 26.
`CN1CCC(c2[nH]c(-c3ccc(F)cc3)c(-c3ccncc3)c2CO)CC1` [Example 21, (5-(4-fluorophenyl)-2-(1-methylpiperidin-4-yl)-4-(pyridin-4-yl)-1H-pyrrol-3-yl)methanol]: the IC50 in assay [1] (setting [2]) was < 1 µM. Besides, in the assay on human PKG (hPKG), the “Human PKG (10 μm)” value was 12.
For the compound `C[C@H]1C[C@H](c2cc(-c3ccncc3)c(-c3ccc(F)cc3)[nH]2)CCN1C` (single isomer, unassigned) [Example 30, 4-(5-(trans-1,2-dimethylpiperidin-4-yl)-2-(4-fluorophenyl)-1H-pyrrol-3-yl)pyridine], the IC50 in assay [1] (setting [2]) was < 1 µM.
Consider `CC(O)c1cc(-c2cc(C3CCN(C)CC3)[nH]c2-c2ccc(F)cc2)ccn1` (stereo not shown) [Example 10, 1-(4-(2-(4-fluorophenyl)-5-(1-methylpiperidin-4-yl)-1H-pyrrol-3-yl)pyridin-2-yl)ethan-1-ol], for which the IC50 in assay [1] (setting [2]) is < 1 µM. In addition, the “Human PKG (10 μm)” value with human PKG (hPKG) is reported as −4.
The like results for `CNCc1c(C2CCN(C)CC2)[nH]c(-c2ccc(F)cc2)c1-c1ccncc1` [Example 23] were, in that order, < 1 µM and 0.
For `CCOC(=O)c1c(C2CCN(C)CC2)[nH]c(-c2ccc(F)cc2)c1-c1ccncc1` [Example 16, Ethyl 5-(4-fluorophenyl)-2-(1-methylpiperidin-4-yl)-4-(pyridin-4-yl)-1H-pyrrole-3-carboxylate], the IC50 in assay [1] (setting [2]) is < 1 µM. In the assay with human PKG (hPKG), the “Human PKG (10 μm)” value worked out at 18.
Consider `CN1CCC(c2cc(-c3ccnc(N)c3)c(-c3ccc(F)cc3)[nH]2)CC1` [Example 7, 4-(2-(4-fluorophenyl)-5-(1-methylpiperidin-4-yl)-1H-pyrrol-3-yl)pyridin-2-amine], for which the IC50 in assay [1] (setting [2]) was < 1 µM. In addition, in the assay with human PKG (hPKG), the “Human PKG (10 μm)” value is listed as 48.
`CN1CCC(c2cc(-c3ccncc3Br)c(-c3ccc(F)cc3)[nH]2)CC1` [Example 1, 3-bromo-4-(2-(4-fluorophenyl)-5-(1-methylpiperidin-4-yl)-1H-pyrrol-3-yl)pyridine]: the IC50 in assay [1] (setting [2]) was < 1 µM. Besides, the “Human PKG (10 μm)” value in the assay on human PKG (hPKG) is reported as 39.
Turning to `CN1CCC(c2cc(-c3ccncc3C(N)=O)c(-c3ccc(F)cc3)[nH]2)CC1` [Example 13, 4-(2-(4-fluorophenyl)-5-(1-methylpiperidin-4-yl)-1H-pyrrol-3-yl)nicotinamide], the IC50 in assay [1] (setting [2]) was < 1 µM. The “Human PKG (10 μm)” value with human PKG (hPKG) is −2.
